Experiment [1] concerns the target cholesterol-bound CYP46A1 (Homo sapiens, UniProt Q9Y6A2). Briefly: Spectral titrations of cholesterol-bound CYP46A1. It counts as binding. The settings on record: 20 μM cholesterol.
The next experiment deals with substrate-free CYP46A1 (Homo sapiens, UniProt Q9Y6A2). Briefly: Spectral titrations of substrate-free CYP46A1. It counts as binding. The settings on record: for spectral response type, substrate-free CYP46A1: P450 difference spectrum.
The target in experiment [2] is CYP46A1 allosteric sites (EFV binding site, Glu binding site) (Homo sapiens, UniProt Q9Y6A2). Briefly: Mapping of the allosteric site. Format: biochemical. The settings on record: for allosteric site of binding: from co-incubations and mutants; for P450 activation with replacements within the Glu-binding site: CYP46A1 mutants K358A, F416A and Y427A; for P450 activation with replacements within the Glu-binding site / P450 activation with replacements within the EFV-binding site: 20 μM compound; for P450 activation with replacements within the EFV-binding site: CYP46A1 mutants R415A and F405A.

Experiment [3] deals with purified recombinant CYP46A1 (Homo sapiens, UniProt Q9Y6A2). The experiment is described as follows: CYP46A1 enzyme assay. As to conditions: for CYP46A1 inhibition at the concentrations tested / shape of concentration dependence curve of CYP46A1 activity: 0–100 μM compound; for effect of co-incubation with L-Glu on CYP46A1 activation / maximal activation in the presence of L-Glu (fold): 100 μM L-Glu; for effect of co-incubation with L-Glu on CYP46A1 activation / effect of co-incubation with (S)-EFV on CYP46A1 activation / maximal activation in the presence of L-Glu (fold): 20 μM compound; for CYP46A1 inhibition at the 60–100 μM concentrations: 60–100 μM compound; for effect of co-incubation with (S)-EFV on CYP46A1 activation: 20 μM (S)-EFV. It counts as biochemical.

“Also recorded” adds a separate entry of the source.

As to `O=C1Cc2ccc(Cl)cc2C(C#CC2CC2)(C(F)(F)F)O1` (racemic) [rac-5], in experiment [1] (18 °C), the “spectral response type, cholesterol-bound CYP46A1” value is reported as “did not seem to elicit a quantifiable spectral response; also recorded: no spectral response”. The “fit of spectral titration curve, substrate-free CYP46A1” value on substrate-free CYP46A1 is reported as “sigmoidal”. Besides, at substrate-free CYP46A1 (18 °C), the “spectral response fit, substrate-free CYP46A1” value is recorded as “S” and the “spectral response type, substrate-free CYP46A1” value is on record as “type 1”. Also, in experiment [2], the “allosteric site of binding” value was “both EFV- and Glu-binding sites”. In experiment [3], the “CYP46A1 activation compared with that with (S)-EFV” value was “lower”, the “CYP46A1 inhibition at the concentrations tested” value is reported as “did not inhibit”, the “shape of concentration dependence curve of CYP46A1 activity” value (“shape” below) is “sigmoidal-like” and the “effect of co-incubation with L-Glu on CYP46A1 activation” value (shortened to “effect of co-incubation with L-Glu”) is “synergistically activated”.

For the compound `O=C1Nc2cc(O)c(Cl)cc2C(C#CC2CC2)(C(F)(F)F)O1` (racemic) [rac-2], the “fit of spectral titration curve, cholesterol-bound CYP46A1” value in experiment [1] is “sigmoidal”. Besides, in experiment [1] (18 °C), the “spectral response fit, cholesterol-bound CYP46A1” value is “S” and the “spectral response type, cholesterol-bound CYP46A1” value is “reverse type 1-like”. The “fit of spectral titration curve, substrate-free CYP46A1” value at substrate-free CYP46A1 is listed as “hyperbolic”. The “spectral response type, substrate-free CYP46A1” value on substrate-free CYP46A1 (18 °C) was “type 2”. Besides, the “allosteric site of binding” value in experiment [2] was “both EFV- and Glu-binding sites”. In experiment [3], the “shape” value is on record as “bell-shaped”, the “effect of co-incubation with L-Glu” value is “synergistically activated” and the “CYP46A1 inhibition at the 60–100 μM concentrations” value was “did not inhibit”.

Turning to `O=C1Nc2c(O)cc(Cl)cc2C(C#CC2CC2)(C(F)(F)F)O1` (racemic) [rac-1], the “fit of spectral titration curve, cholesterol-bound CYP46A1” value in experiment [1] was “sigmoidal”. The “spectral response type, cholesterol-bound CYP46A1” value in experiment [1] (18 °C) is “reverse type 1-like”. On substrate-free CYP46A1, the “fit of spectral titration curve, substrate-free CYP46A1” value is listed as “hyperbolic”. Besides, the “spectral response type, substrate-free CYP46A1” value at substrate-free CYP46A1 (18 °C) is given as “type 2”. Moreover, in experiment [3], the “shape” value is recorded as “bell-shaped” and the “CYP46A1 inhibition at the 60–100 μM concentrations” value is on record as “did not inhibit”.

For `CC1Nc2ccc(Cl)cc2C(C#CC2CC2)(C(F)(F)F)O1` (racemic) [rac-7], the “spectral response type, cholesterol-bound CYP46A1” value in experiment [1] (18 °C) is “did not seem to elicit a quantifiable spectral response; also recorded: no spectral response”. The “fit of spectral titration curve, substrate-free CYP46A1” value at substrate-free CYP46A1 is “hyperbolic”. The “spectral response type, substrate-free CYP46A1” value at substrate-free CYP46A1 (18 °C) was “type 1”. In experiment [2], the “P450 activation with replacements within the Glu-binding site” value is on record as “largely reduced or abolished”, the “P450 activation with replacements within the EFV-binding site” value is reported as “not significantly affected” and the “allosteric site of binding” value was “mainly with the allosteric site for Glu”. Besides, in experiment [3], the “CYP46A1 activation compared with that with (S)-EFV” value is on record as “lower”, the “shape” value was “bell-shaped”, the “effect of co-incubation with (S)-EFV on CYP46A1 activation” value was “synergistic CYP46A1 activation” and the “maximal activation in the presence of L-Glu (fold)” value is reported as “abolished”. Besides, in experiment [3], the “effect of co-incubation with L-Glu” value is recorded as “abolished”.

`FC(F)(F)[C@@]1(C#CC2CC2)OCNc2ccc(Cl)cc21` [(S)-6]: in experiment [1] (18 °C), the “spectral response type, cholesterol-bound CYP46A1” value is given as “did not seem to elicit a quantifiable spectral response; also recorded: no spectral response”. Also, the “fit of spectral titration curve, substrate-free CYP46A1” value at substrate-free CYP46A1 is “hyperbolic”. Besides, the “spectral response type, substrate-free CYP46A1” value on substrate-free CYP46A1 (18 °C) is given as “type 1”. In addition, in experiment [2], the “P450 activation with replacements within the Glu-binding site” value is reported as “largely reduced or abolished”, the “P450 activation with replacements within the EFV-binding site” value is “not significantly affected” and the “allosteric site of binding” value is listed as “mainly with the allosteric site for Glu”. Besides, in experiment [3], the “CYP46A1 activation compared with that with (S)-EFV” value is recorded as “lower”, the “CYP46A1 inhibition at the concentrations tested” value is “did not inhibit”, the “shape” value is recorded as “bell-shaped” and the “effect of co-incubation with (S)-EFV on CYP46A1 activation” value is on record as “synergistic CYP46A1 activation”. In experiment [3], the “maximal activation in the presence of L-Glu (fold)” value is recorded as “abolished” and the “effect of co-incubation with L-Glu” value is “abolished”.
